Measurements taken from patent publication US5478812A, “Chromanol glycoside and method for production thereof” (CCI Corporation, priority 1993, dated 1995).
Where two headings read alike, the source gives them in different places.

Legend:
[1] = hydroperoxidation of methyl linoleate via radical chain reaction in hexane/isopropyl alcohol; format: biochemical; details: 0.1 μmol antioxidant in 1.1 ml hexane/isopropyl alcohol 1:1; 37 °C; oil-soluble radical generator; in words
Text: Antioxidant activity on the chromanol glycoside obtained in Examples 1 to 5 [6-hydroxy-2,5,7,8-tetramethyl chroman-2-methyl-α-D-glucopyranoside represented by the aforementioned formula (4)], the chromanol glycoside obtained in Examples 6 to 8 [6-hydroxy-2,5,7,8-tetramethyl chroman-2-ethyl-α-D-glucopyranoside represented by the aforementioned formula (7)], the chromanol glycoside obtained in Examples 4 and 5 [6-hydroxy-2,5,7,8-tetramethyl chroman-2-methyl-α-D-maltopyranoside represented by the aforementioned formula (5)], and the chromanol glycoside obtained in Example 8 [6-hydroxy-2,5,7,8-tetramethyl chroman-2-ethyl-α-D-maltopyranoside represented by the aforementioned formula (8)] was investigated by measuring the hydroperoxidation of methyl linoleate via radical chain reaction. Specifically, this test was performed by incubating 132 μmol of methyl linoleate, 16.5 μmol of an oil-soluble radical generator [2,2'-azo-bis(2,4-dimethyl valeronitrile)], 0.1 μmol of antioxidant in 1.1 ml of a hexane/isopropyl alcohol (1:1 v/v), and the mixture was incubated at 37° C. At regular intervals, aliquots of the reaction mixture were withdrawn and the amount of methyl linoleate hydroperoxides were measured by HPLC. […] EXAMPLE 10

[2] = antioxidant activity using liposomal membranes (phosphatidylcholine hydroperoxides); format: biochemical; details: 0.1 μmol antioxidant in 1.1 ml 10 mM tris-HCl buffer pH 7.4; water-soluble radical generator; in words
Text: Antioxidant activity on the chromanol glycoside obtained in Examples 1 to 5 [6-hydroxy-2,5,7,8-tetramethyl chroman-2-methyl-α-D-glucopyranoside represented by the aforementioned formula (4)[, the chromanol glycoside obtained in Examples 6 to 8 [6-hydroxy-2,5,7,8-tetramethyl chroman-2-ethyl-α-D-glucopyranoside represented by the aforementioned formula (7)], the chromanol glycoside obtained in Examples 4 and 5 [6-hydroxy-2,5,7,8-tetramethyl chroman-2-methyl-α-D-maltopyranoside represented by the aforementioned formula (5)], and the chromanol glycoside obtained in Example 8 [6-hydroxy-2,5,7,8-tetramethyl chroman-2-ethyl-α-D-malto-pyranoside represented by the aforementioned formula (8)] was investigated by using a liposonal membranes. Specifically, this test was performed by adjusting a reaction solution consisting of 5.5 μmol of a multilameller liposomes of egg yolk phosphatidylcholine, 16.5 μmol of a water-soluble radical generator [2,2'-azo-bis(2-amidinopropane) dihydrochloride], and 0.1 μmol of antioxidant in 1.1 ml of a 10 mM tris-HCl buffer (pH 7.4). At regular intervals, aliquots of the reaction mixture were withdrawn and the amount of phosphatidylcholine hydroperoxides were measured by HPLC.

pH stability = format: physicochemical; details: 5.5 mM, buffer/ethanol 5:1 v/v; for remaining at 100 h, 5500 µM: read-out: Residual amounts (%) after 100 hours; for Residual amounts (%) after 100 hours: 5500 µM
Text: The chromanol glycoside obtained in Examples 1 to 5 [6-hydroxy-2,5,7,8-tetramethyl chroman-2-methyl-α-D-glucopyranoside represented by the aforementioned formula (4)], the chromanol glycoside obtained in Examples 6 to 8 [6-hydroxy-2,5,7,8-tetramethyl chroman-2-ethyl-α-D-glucopyranoside represented by the aforementioned formula (7)], the chromanol glycoside obtained in Examples 4 and 5 [6-hydroxy-2,5,7,8-tetramethyl chroman-2-methyl-α-D-maltopyranoside represented by the aforementioned formula (5)], and the chromanol glycoside obtained in Example 8 [6 -hydroxy-2,5,7,8-tetramethyl chroman-2-ethyl-α-D-maltopyranoside represented by the aforementioned formula (8)] were tested for pH stability. This test was specifically performed by incubating a 5.5 mM chromanol glycoside solution (buffer/ethanol, 5:1 v/v) having a varying pH value. At regular intervals, aliquots of the reaction mixture were withdrawn and the residual amounts of chromanol glycoside were measured by HPC. For the purpose of comparison, the 2-substituted alcohols represented by the aforementioned formulas (3) and (6) and Trolox were similarly tested.
It is clearly noted from the test results that the conversion of 2-substituted alcohols into respective glycosides enhances pH stability. The buffer used for the test were 100 mM acetate buffer of pH 5.5, 100 mM phosphate buffer of pH 7.0, and 100 mM tris-HCl buffer of pH 8,5.

solubility in water = format: physicochemical; details: 25 °C, constant stirring at 200 rpm, HPLC; for solubility: water, read-out: solubility in water (amounts of sample dissolved in 1 ml of water)
Text: The chromanol glycoside obtained in Examples 1 to 5 [6-hydroxy-2,5,7,8-tetramethyl chroman-2-methyl-α-D-glucopyranoside represented by the aforementioned formula (4)], the chromanol glycoside obtained in Examples 6 to 8 [6-hydroxy-2,5,7,8-tetramethyl chroman-2-ethyl-α-D-glucopyranoside represented by the aforementioned formula (7)], the chromanol glycoside obtained in Examples 4 and 5 [6-hydroxy-2,5,7,8-tetramethyl chroman-2-methyl-α-D-maltopyranoside represented by the aforementioned formula (5)], and the chromanol glycoside obtained in Example 8 [6-hydroxy-2,5,7,8-tetramethyl chroman-2-ethyl-α-D-maltopyranoside represented by the aforementioned formula (8)] were tested for solubility in water. Specifically, this test was performed by adding an excess amount of a given chromanol glycoside to 1 ml of water. The reaction mixture was incubated at 25° C. for […] with constant stirring at 200 rpm. After 100 hours, the reaction mixture was transferred into a membrane filter (produced by Nihon Millipore Ltd. and marketed under trademark designation of "HPLC Sample Prep C02-LG") and insoluble substances were removed by centrifugation (4,100×g, 10 minutes, 20° C.). The filtered solution was subjected to HPLC to determine the amount of chromanol glycoside remaining in the aqueous solution. For the purpose of comparison, the 2-substituted alcohols represented by the aforementioned formulas (3) and […] and Trolox were similarly tested.
The numerals given in the tables represent the amounts of sample dissolved in 1 ml of water.

[3] = acetate buffer/ethanol 5:1, pH 5.5, pH 5.5 (100 mM acetate buffer)
[4] = phosphate buffer/ethanol 5:1, pH 7, pH 7.0 (100 mM phosphate buffer)
[5] = tris-hcl buffer/ethanol 5:1, pH 8.5, pH 8.5 (100 mM tris-HCl buffer)

SMILES | remaining at 100 h, 5500 µM (pH stability; [3]) [%] | remaining at 100 h, 5500 µM (pH stability; [4]) [%] | remaining at 100 h, 5500 µM (pH stability; [5]) [%] | solubility (solubility in water) [mg/mL] | antioxidant activity (methyl linoleate hydroperoxides) [1] | antioxidant activity (phosphatidylcholine hydroperoxides) [2] | further results
Cc1c(C)c2c(c(C)c1O)CCC(C)(CO[C@H]1O[C@H](CO)[C@@H](O)[C@H](O)[C@H]1O)O2 (stereo partly drawn) [formula (4), 6-hydroxy-2,5,7,8-tetramethyl chroman-2-methyl-α-D-glucopyranoside] | 91 | 41 | 20 | ~1000 | excel 3,5-tert-butyl-4-hydroxytoluene and equal α-tocopherol | more effective antioxidants than ascorbic acid | Residual amounts (%) after 100 hours (pH stability; pH 5.5 (100 mM acetate buffer), listed as formula (4) of Example 2, 6000 min): 85%; Residual amounts (%) after 100 hours (pH stability; pH 5.5 (100 mM acetate buffer), listed as formula (4) of Example 3, 6000 min): 89%; Residual amounts (%) after 100 hours (pH stability; pH 5.5 (100 mM acetate buffer), listed as formula (4) of Example 4, 6000 min): 84%; Residual amounts (%) after 100 hours (pH stability; pH 5.5 (100 mM acetate buffer), listed as formula (4) of Example 5, 6000 min): 88%; Residual amounts (%) after 100 hours (pH stability; pH 7.0 (100 mM phosphate buffer), listed as formula (4) of Example 2, 6000 min): 42%; Residual amounts (%) after 100 hours (pH stability; pH 7.0 (100 mM phosphate buffer), listed as formula (4) of Example 3, 6000 min): 43%; Residual amounts (%) after 100 hours (pH stability; pH 7.0 (100 mM phosphate buffer), listed as formula (4) of Example 4, 6000 min): 44%; Residual amounts (%) after 100 hours (pH stability; pH 7.0 (100 mM phosphate buffer), listed as formula (4) of Example 5, 6000 min): 43%; Residual amounts (%) after 100 hours (pH stability; pH 8.5 (100 mM tris-HCl buffer), listed as formula (4) of Example 2, 6000 min): 19%; Residual amounts (%) after 100 hours (pH stability; pH 8.5 (100 mM tris-HCl buffer), listed as formula (4) of Example 4, 6000 min): 19%; Residual amounts (%) after 100 hours (pH stability; pH 8.5 (100 mM tris-HCl buffer), listed as formula (4) of Example 5, 6000 min): 21%; solubility in water (amounts of sample dissolved in 1 ml of water) (solubility in water; listed as formula (4) of Example 3): About 1000 mg/ml; solubility in water (amounts of sample dissolved in 1 ml of water) (solubility in water; listed as formula (4) of Example 4): About 1000 mg/ml; solubility in water (amounts of sample dissolved in 1 ml of water) (solubility in water; listed as formula (4) of Example 5): About 1000 mg/ml
Cc1c(C)c2c(c(C)c1O)CCC(C)(CO)O2 (racemic) [formula (3), reference compound] | 73 | 29 | 7 | 1 |  |  | 

Further lines, with some results ahead:

remaining at 100 h, 5500 µM (pH stability; [3]) [%] | remaining at 100 h, 5500 µM (pH stability; [4]) [%] | remaining at 100 h, 5500 µM (pH stability; [5]) [%] | solubility (solubility in water) [mg/mL] | SMILES | antioxidant activity (methyl linoleate hydroperoxides) [1] | antioxidant activity (phosphatidylcholine hydroperoxides) [2] | further results
69 | 24 | 7 | 33 | Cc1c(C)c2c(c(C)c1O)CCC(C)(CCO[C@H]1O[C@H](CO)[C@@H](O)[C@H](O)[C@H]1O)O2 (stereo partly drawn) [formula (7), 6-hydroxy-2,5,7,8-tetramethyl chroman-2-ethyl-α-D-glucopyranoside] | excel 3,5-tert-butyl-4-hydroxytoluene and equal α-tocopherol | more effective antioxidants than ascorbic acid | Residual amounts (%) after 100 hours (pH stability; pH 5.5 (100 mM acetate buffer), listed as formula (7) of Example 7, 6000 min): 71%; Residual amounts (%) after 100 hours (pH stability; pH 5.5 (100 mM acetate buffer), listed as formula (7) of Example 8, 6000 min): 70%; Residual amounts (%) after 100 hours (pH stability; pH 7.0 (100 mM phosphate buffer), listed as formula (7) of Example 7, 6000 min): 26%; Residual amounts (%) after 100 hours (pH stability; pH 7.0 (100 mM phosphate buffer), listed as formula (7) of Example 8, 6000 min): 25%; Residual amounts (%) after 100 hours (pH stability; pH 8.5 (100 mM tris-HCl buffer), listed as formula (7) of Example 8, 6000 min): 8%; solubility in water (amounts of sample dissolved in 1 ml of water) (solubility in water; listed as formula (7) of Example 7): 45 mg/mL; solubility in water (amounts of sample dissolved in 1 ml of water) (solubility in water; listed as formula (7) of Example 8): 45 mg/mL
63 | 19 | 3 | 0.1 | Cc1c(C)c2c(c(C)c1O)CCC(C)(CCO)O2 (racemic) [formula (6), reference compound] |  |  | 
84 | 40 | 19 |  | Cc1c(C)c2c(c(C)c1O)CCC(C)(CO[C@H]1O[C@H](CO)[C@@H](O[C@H]3O[C@H](CO)[C@@H](O)[C@H](O)[C@H]3O)[C@H](O)[C@H]1O)O2 (stereo partly drawn) [formula (5), 6-hydroxy-2,5,7,8-tetramethyl chroman-2-methyl-α-D-maltopyranoside] | excel 3,5-tert-butyl-4-hydroxytoluene and equal α-tocopherol | more effective antioxidants than ascorbic acid | Residual amounts (%) after 100 hours (pH stability; pH 5.5 (100 mM acetate buffer), listed as formula (5) of Example 5, 6000 min): 86%; Residual amounts (%) after 100 hours (pH stability; pH 7.0 (100 mM phosphate buffer), listed as formula (5) of Example 5, 6000 min): 44%; Residual amounts (%) after 100 hours (pH stability; pH 8.5 (100 mM tris-HCl buffer), listed as formula (5) of Example 5, 6000 min): 20%
